Source: publication PMC6472190, “Enhanced Liver Targeting of Camptothecin via Conjugation with Deoxycholic Acid” (Molecules, 2019)
Read-outs that look alike come from different tables or passages of the source.

Experiments:
[1] = In vivo body distribution and pharmacokinetics after oral administration; design: species or system Kunming mice; details: male, Kunming, mouse
Protocol: For body distribution investigations, 80 male Kunming mice (weight, 18–22 g; age, 6–8 weeks) were used. The animal experiments in this study were performed under the guidance of the care and use of laboratory animals in Zhejiang University of Technology, Hangzhou, China, and conformed to the National Institutes of Health Guide for Care and Use of Laboratory Animals (Publication No. 85-23). After fasting overnight, mice were received a single dose of G2 or CPT (30 mg/kg, calculated as CPT) suspension by gavage. At desired time (0.5, 1, 2, 4, 6, 8, 12 h), animals were sacrificed. Their blood samples were collected by eyeball removal and immediately centrifuged to separate plasma. The organs (heart, liver, spleen, lung, kidney) were removed and weighed before homogenization. And the plasma and tissue homogenate samples were stored at −80 °C until analysis.
For determination of the compound concentration, 200 μL methanol and 100 μL acetonitrile were added to 100 μL plasma or tissue homogenate to precipitate protein, and 5 μL IS (2 μM) was also added. Mixtures were votexed for 2 min and centrifuged at 12,000 rpm for 10 min at 4 °C. Then, supernatant was transferred to a new tube and evaporated by an EZ-2 personal solvent evaporator (Genevac, Suffolk, UK). Finally, 50 μL of 50% acetonitrile (v/v) was added to re-dissolve the samples. After centrifuged at 13,000 rpm for 10 min, the supernatant was used for HPLC analysis.
To determine G2 and CPT concentration in plasma and tissue homogenate, an Inertsil ODS-SP C18 column (5 μm, 4.6 × 250 mm; GL Sciences) was used. The mobile phase was made up of acetonitrile (A) and 0.1% formic acid (B). CPT was separated by an isocratic elution with 35:65 (v/v) A:B. A gradient eluant ((A:B) 0–3 min: 35:65; 3–8 min: from 35:65 to 80:20; 8–20 min: 80:20; 20–21 min: from 80:20 to 35:65; 21–25 min: 35:65) was used to separate G2. Other conditions were the same as cell model.
The pharmacokinetic analysis using a non-compartmental model with the PKSolver pharmacokinetic software (China Pharmaceutical University, Nanjing, China) was conducted to calculate the key parameters of G2 and CPT. In order to evaluate whether the conjugate had the trend of liver targeting, liver targeting index (LTI) was calculated by Equation (1) below:LTI = AUC0–t’ in liver/AUC0–t in plasma (1) where AUC0–t’ in liver is the AUC0–t of drug in liver and AUC0–t in plasma is the AUC0–t of drug in plasma. All the data were presented as mean ± SD. Statistical analysis were performed by Student’s t-test using the SPSS 22.0 statistical software program (IBM company, Denver, CO, USA), and p < 0.05 was used as the criterion for statistical significant.

[2] = Stability in fresh rat plasma; type: in vitro ADME; details: 10 μM, 3 h
Protocol: (§1) The stability of G2 and CPT was assessed in SGF, SIF and fresh rat plasma. SGF and SIF were prepared according to a previous report with slight modifications. Briefly, 0.3% (w/v) purified pepsin, 2 g of NaCl and 7 mL of HCl (12 M) were dissolved in 1000 mL of distilled water to obtain SGF (PH 1.2). To make SIF (PH 6.8), 6.8 g of KH2PO4, 1.0% (w/v) purified pancreatin and 77 mL of NaOH (0.2 M) were dissolved in 1000 mL of distilled water. SGF, SIF and rat plasma containing 10 μM G2 or CPT were incubated at 37 °C. At scheduled time points (0, 5, 10, 20, 30, 60, 90, 120, 180 min), 100 μL samples were collected and reaction was quenched immediately by adding 400 μL of ice cold acetonitrile. The mixture was votexed 2 min and centrifuged at 12000 rpm for 10 min. Then, the supernatant was filtered with a filter (0.22 μm) and detected by HPLC.
(§2) To determine the concentration of G2 and CPT in the stability investigation, a C18 (5 μm, 4.6 × 250 mm, Elite, Dalian, China) reverse-phase column was used. The chromatographic separation was performed on isocratic elution with acetonitrile-0.1% formic acid (80:20, v/v) and acetonitrile-0.1% formic acid (60:40, v/v) for G2 and CPT, respectively. Other conditions were the same as cell model.

HepG2 cells [3] = assay: Competitive inhibition of antitumor activity (MTT assay) with deoxycholic acid pretreatment; details: for effect of deoxycholic acid pretreatment on cytotoxicity: HepG2, 1 μM deoxycholic acid 0.5 h, then 1 μM compound 48 h; for viability at 1 µM: Homo sapiens
Protocol: After reaching logarithmic growth phase, HepG2 cells were passaged and 100 μL of the cell suspension was seeded into 96-well plates at a density of 5 × 10^4 cells/mL, then cells were cultured in an incubator (Thermo Fisher Scientific, Marietta, Ohio, USA) at 37 °C. After reached 80% confluence, cell monolayers were firstly incubated with or without 1 μM deoxycholic acid for 0.5 h. […] Next, cells were further incubated at 37 °C for 48 h. Then 20 μL of MTT reagent (5 mg/mL in PBS) was added and cells were incubated for another 4 h at 37 °C to allow MTT to be metabolized into formazan. Finally, the media was tapped out and 150 μL of DMSO was added to each well to dissolve the formazan crystals. After mixing, the absorbance was quantified at 490 nm using an ELISA Plate Reader (infinite M200 Pro, TECAN, Grodig, Salzburg, Austria).

HepG2 cells [4] = assay: Cellular uptake in HepG2 2D cell model with deoxycholic acid pretreatment; type: cell-based, human; details: HepG2 2D model, deoxycholic acid 0.5 h, then 10 μM compound 2 h
Protocol: Cellular uptake of G2 and CPT into 2D HepG2 cell model was performed as described previously with slight modifications. […] Then, cells were cultured in an incubator at 37 °C. After reached 80% confluence, cell monolayers were pretreated with deoxycholic acid at different concentrations for 0.5 h. Next, the inhibitor of deoxycholic acid was removed and cells were washed twice with Hank’s balanced salt solution (HBSS). After 2 h incubation with 10 μM G2 or CPT, cells were washed three times with HBSS and digested with 200 μL of trypsin for 2 min to obtain single cell suspensions. Next, the cells were washed three times with cold HBSS and 250 μL of HBSS was added to resuspend the pellets. Then, the cells were lysed by freeze-thaw three times and sonicated for 10 min. […] The compound concentration was calculated by the corresponding standard curve. The protein concentration of the supernatant was determined by the Bradford method based on a standard curve made by desired concentrations of bovine serum albumin. The cellular uptake was presented as the quantity of G2 or CPT associated with 1 mg of cellular protein [32, 33].
(§3) Both G2 and CPT were measured by HPLC analysis, which was performed using a Shimadzu HPLC system (Shimadzu, Kyoto, Japan). […] The column was maintained at 30 °C and the absorbance detector wavelength was 363 nm. […]

[5] = Stability in simulated gastric fluid (SGF); type: in vitro ADME; details: 3 h
Protocol: as §1, §2

HepG2 spheroids = assay: Cellular uptake in HepG2 3D spheroid cell model with deoxycholic acid pretreatment; type: cell-based, human; details: HepG2 3D model
Protocol: The liquid overlay method was employed for the culturing of HepG2 spheroids as described previously. Cells reached logarithmic growth phase were digested by trypsin then centrifuged. The cell number was counted using a hemocytomete and cells were diluted in growth medium to a density of 1 × 10^4 cells/mL. Spheroids were seeded by pipetting 2 mL of the cell suspension into each well of a 6-well ultra-low attachment (ULA) plates (Corning®, Wujiang, China) and incubated for 3 days.
After HepG2 spheroids were prepared as 3.3, they were transferred into 4 mL centrifuge tube and washed twice with HBSS. Then, the spheroids were resuspended with deoxycholic acid at different concentrations and seeded into the 6-well ULA plates again. After being cultured in an incubator for 0.5 h at 37 °C, the spheroids were transferred into 4 mL centrifuge tube and washed twice with HBSS to remove the deoxycholic acid. Then, they were resuspended with 10 μM G2 or CPT and seeded into the 6-well ULA plates. After being cultured in an incubator for 2 h at 37 °C, the spheroids were transferred into 4 mL centrifuge tube and washed three times with HBSS. […]
as §3

[6] = Stability in simulated intestinal fluid (SIF); type: in vitro ADME; details: SIF pH 6.8, 10 μM, 37 °C, 3 h
Protocol: as §1, §2

[7] = heart, po, 30 mg/kg, mice, oral 30 mg/kg calculated as CPT
[8] = kidney, po, 30 mg/kg, mice, oral 30 mg/kg calculated as CPT
[9] = liver, po, 30 mg/kg, mice, oral 30 mg/kg calculated as CPT
[10] = lung, po, 30 mg/kg, mice, oral 30 mg/kg calculated as CPT
[11] = plasma, po, 30 mg/kg, mice, oral 30 mg/kg calculated as CPT
[12] = spleen, po, 30 mg/kg, mice, oral 30 mg/kg calculated as CPT

Structure (SMILES): CC[C@@]1(O)C(=O)OCc2c1cc1n(c2=O)Cc2cc3ccccc3nc2-1 [CPT, Camptothecin]
- MRT inf ([1]; heart, po, 30 mg/kg, heart, mice, oral 30 mg/kg calculated as CPT, read-out: MRT0–∞): 6.35 ± 2.71 h
- AUC(0-inf) [1, 7]: 3.64 ± 1.61 µM·h
- AUC(0-t) [1, 7]: 2.86 ± 0.983 µM·h
- Cmax [1, 7]: 954 ± 207 nM
- Tmax [1, 7]: 0.6 ± 0.2 h
- MRT inf ([1]; kidney, po, 30 mg/kg, kidney, mice, oral 30 mg/kg calculated as CPT, read-out: MRT0–∞): 5.32 ± 0.46 h
- AUC(0-inf) [1, 8]: 5.45 ± 1.19 µM·h
- AUC(0-t) [1, 8]: 4.83 ± 1.04 µM·h
- Cmax [1, 8]: 1330 ± 218 nM
- Tmax [1, 8]: 0.8 ± 0.245 h
- Kp ([1]; liver and plasma, mice, oral 30 mg/kg calculated as CPT, read-out: liver targeting index (LTI) = AUC0–t in liver/AUC0–t in plasma): 4.84
- MRT inf ([1]; liver, po, 30 mg/kg, liver, mice, oral 30 mg/kg calculated as CPT, read-out: MRT0–∞): 4.26 ± 0.38 h
- AUC(0-inf) [1, 9]: 7.46 ± 1.54 µM·h
- AUC(0-t) [1, 9]: 6.95 ± 1.32 µM·h
- Cmax [1, 9]: 2080 ± 243 nM
- Tmax [1, 9]: 1 h
- MRT inf ([1]; lung, po, 30 mg/kg, lung, mice, oral 30 mg/kg calculated as CPT, read-out: MRT0–∞): 7.25 ± 1.77 h
- AUC(0-inf) [1, 10]: 12.4 ± 4.43 µM·h
- AUC(0-t) [1, 10]: 9.8 ± 2.59 µM·h
- Cmax [1, 10]: 1640 ± 325 nM
- Tmax [1, 10]: 1.2 ± 0.4 h
- MRT inf ([1]; plasma, po, 30 mg/kg, plasma, mice, oral 30 mg/kg calculated as CPT, read-out: MRT0–∞): 3.22 ± 0.578 h
- AUC(0-inf) [1, 11]: 1.68 ± 0.252 µM·h
- AUC(0-t) [1, 11]: 1.56 ± 0.26 µM·h
- Cmax [1, 11]: 465 ± 84 nM
- Tmax [1, 11]: 0.5 h
- MRT inf ([1]; spleen, po, 30 mg/kg, spleen, mice, oral 30 mg/kg calculated as CPT, read-out: MRT0–∞): 6.96 ± 2.95 h
- AUC(0-inf) [1, 12]: 9.29 ± 2.53 µM·h
- AUC(0-t) [1, 12]: 7.56 ± 1.72 µM·h
- Cmax [1, 12]: 1530 ± 195 nM
- Tmax [1, 12]: 0.9 ± 0.2 h
- remaining after incubation in rat plasma ([2]; fresh rat plasma, 37 °C): 24.4%
- effect of deoxycholic acid pretreatment on cytotoxicity (HepG2 cells [3]): no distinct effects
- effect of deoxycholic acid pretreatment on uptake (HepG2 cells [4]): no obvious change
- degraded rate after incubation in SGF ([5]; SGF pH 1.2, 10 μM, 37 °C): 37.9%
- effect of deoxycholic acid on cellular uptake (HepG2 spheroids; deoxycholic acid 0.5 h, then 10 μM compound 2 h): no distinct effect
- degraded after incubation in SIF [6]: 16.1%

Structure (SMILES): CC[C@@]1(OC(=O)COC(=O)CC[C@@H](C)[C@H]2CC[C@H]3[C@@H]4CC[C@@H]5C[C@H](O)CC[C@]5(C)[C@H]4C[C@H](O)[C@]23C)C(=O)OCc2c1cc1n(c2=O)Cc2cc3ccccc3nc2-1 [G2, CPT-20 (S)-O-acetate-deoxycholic acid]
- AUC0–t in liver relative to CPT ([1]; in vivo, po): 2.31 fold
- increase of liver targeting index in comparison to CPT ([1]; in vivo, po): 1.67 fold
- Kp ([1]; in vivo, po, 30 mg/kg): 8.07
- MRT inf ([1]; in vivo, po, 30 mg/kg, MRT0–∞): 4.36 ± 0.645 h
- remaining after incubation in rat plasma ([2]; rat, plasma): 42.3%
- effect of deoxycholic acid pretreatment on cytotoxicity (HepG2 cells [3]): markedly reduced
- viability at 1 µM (HepG2 cells [3]; HepG2, read-out: cell viability, HepG2, 1 μM compound 48 h, after pretreatment with 1 μM deoxycholic acid for 0.5 h): 71.1%
- viability at 1 µM (HepG2 cells [3]; HepG2, read-out: cell viability, HepG2, 1 μM compound 48 h, without deoxycholic acid pretreatment): 51.3%
- degraded rate after incubation in SGF ([5]; 10 μM, pH 1.2): 15.0%
- decrease of cellular uptake compared to deoxycholic acid-free group (HepG2 spheroids; pretreatment with 200 μM deoxycholic acid 0.5 h, 10 μM compound 2 h): 66.4%
